Columns and labels:
EcClpB [1] = molecular target: T1, EcClpB (Escherichia coli, UniProt P63284); experiment: phosphate release ATPase assay; assay type: biochemical; conditions: 5 mM ATP, 10 mM MgCl2, 100 mM Tris/HCl pH 8.0, 37 °C; basal activity
T1 construct: gene clpB; purified, produced or obtained as previously described; hexamer

EhClpB = molecular target: T2, EhClpB (Ehrlichia chaffeensis, UniProt Q2GH96); conditions: 5 mM ATP, 10 mM MgCl2, 100 mM Tris/HCl pH 8.0, 37 °C; basal activity
T2 construct: gene clpB

EcClpB [2] = molecular target: T1, EcClpB; experiment: filter retention with SDS-PAGE, nucleotide-induced binding to aggregated G6PDH; conditions: 6 mM nucleotide, 20 mM Mg(OAc)2, 50 mM Tris/HCl pH 7.5, 30 °C; indirect read-out
[3] = molecular target: ClpB from Ehrlichia chaffeensis (E. chaffeensis); experiment: AUC; sedimentation velocity, 48,000 rpm, 20°C, 0.3 mg/ml protein in 50 mM Hepes/KOH pH 7.5, 0.2 M KCl, 20 mM MgCl2, 1 mM EDTA, 2 mM β-mercaptoethanol, with 2 mM ATPγS

T1 sequence (P63284 whole entry): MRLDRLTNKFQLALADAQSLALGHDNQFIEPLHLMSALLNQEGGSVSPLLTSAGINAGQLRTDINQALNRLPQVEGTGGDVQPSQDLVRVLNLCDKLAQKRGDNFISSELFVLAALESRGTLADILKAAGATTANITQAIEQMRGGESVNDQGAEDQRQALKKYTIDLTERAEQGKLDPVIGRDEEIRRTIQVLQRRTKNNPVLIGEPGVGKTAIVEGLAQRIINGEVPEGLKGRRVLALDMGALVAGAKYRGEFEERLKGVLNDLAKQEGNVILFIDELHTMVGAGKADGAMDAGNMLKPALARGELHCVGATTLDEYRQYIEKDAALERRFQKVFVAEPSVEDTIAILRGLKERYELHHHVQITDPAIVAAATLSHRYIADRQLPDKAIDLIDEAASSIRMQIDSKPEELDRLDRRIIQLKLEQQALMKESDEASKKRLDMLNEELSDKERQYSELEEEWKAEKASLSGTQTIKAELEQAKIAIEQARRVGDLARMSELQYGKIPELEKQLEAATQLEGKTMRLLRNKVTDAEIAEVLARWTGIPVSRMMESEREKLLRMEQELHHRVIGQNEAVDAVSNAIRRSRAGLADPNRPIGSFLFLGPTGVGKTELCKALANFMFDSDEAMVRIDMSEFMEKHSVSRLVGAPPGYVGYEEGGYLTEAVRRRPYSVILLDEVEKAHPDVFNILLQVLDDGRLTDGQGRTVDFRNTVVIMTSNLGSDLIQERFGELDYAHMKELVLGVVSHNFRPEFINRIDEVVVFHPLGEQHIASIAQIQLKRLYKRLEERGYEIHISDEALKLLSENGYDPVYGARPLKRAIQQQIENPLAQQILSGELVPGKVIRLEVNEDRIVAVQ
T2 sequence (Q2GH96 entry or part of it): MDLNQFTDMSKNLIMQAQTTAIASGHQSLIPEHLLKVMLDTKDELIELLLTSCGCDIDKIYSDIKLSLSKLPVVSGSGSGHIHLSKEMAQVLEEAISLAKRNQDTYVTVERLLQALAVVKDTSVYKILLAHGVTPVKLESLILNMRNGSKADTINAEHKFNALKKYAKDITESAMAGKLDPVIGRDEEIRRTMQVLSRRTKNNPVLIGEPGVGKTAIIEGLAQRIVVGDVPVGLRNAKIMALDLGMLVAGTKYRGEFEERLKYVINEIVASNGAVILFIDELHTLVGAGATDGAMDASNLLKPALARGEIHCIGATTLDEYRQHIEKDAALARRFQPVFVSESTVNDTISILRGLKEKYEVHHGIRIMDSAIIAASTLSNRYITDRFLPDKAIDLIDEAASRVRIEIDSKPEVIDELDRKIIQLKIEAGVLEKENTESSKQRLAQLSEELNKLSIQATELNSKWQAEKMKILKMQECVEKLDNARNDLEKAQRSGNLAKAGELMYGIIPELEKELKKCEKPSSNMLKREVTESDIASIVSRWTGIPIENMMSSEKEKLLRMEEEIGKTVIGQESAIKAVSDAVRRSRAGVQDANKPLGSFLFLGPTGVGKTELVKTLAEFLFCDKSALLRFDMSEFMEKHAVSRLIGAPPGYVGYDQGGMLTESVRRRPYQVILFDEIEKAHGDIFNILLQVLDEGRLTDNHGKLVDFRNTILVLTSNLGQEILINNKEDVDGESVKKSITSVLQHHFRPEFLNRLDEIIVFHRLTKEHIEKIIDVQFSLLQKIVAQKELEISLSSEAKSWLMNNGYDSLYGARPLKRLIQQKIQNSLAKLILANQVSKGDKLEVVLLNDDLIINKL

Which “phosphate release ATPase assay” value (EcClpB [1]) does the source give for Nc1ncnc2c1ncn2[C@@H]1O[C@H](COP(=O)(O)OP(=O)(O)OP(=O)(O)O)[C@@H](O)[C@H]1O [ATP] here?
Its value is “the basal ATPase of EhClpB was similar to that of the purified EcClpB”.

And the “phosphate release ATPase assay” value (EhClpB)?
Its value is “the basal ATPase of EhClpB was similar to that of the purified EcClpB”.

Nc1ncnc2c1ncn2[C@@H]1O[C@H](COP(=O)(O)OP(=O)(O)OP(O)(O)=S)[C@@H](O)[C@H]1O [ATPγS, adenosine-5'-(γ-thio)-triphosphate] was tested. Which “filter retention with SDS-PAGE, nucleotide-induced binding to aggregated G6PDH” value (EcClpB [2]) did it give?
The value was “only ATPγS induces significant binding of EcClpB to the aggregates”.

Which stoichiometry N [3] does the source give for “ClpB from Ehrlichia chaffeensis (natural protein)” here?
Its stoichiometry N is 6.
